Among the test systems are HCT-15 colon; HCC-2998 colon; OVCAR-4 ovarian; CCRF-CEM leukemia; CAKI-1 renal; SF-268 CNS; RPMI-8226 leukemia; NCI-H226 lung; SK-MEL-28 melanoma.
Common to all, as to test: DTP human tumour cell line panel, 48 h

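Each compound was tested at five concentrations against cells in 96-well plates for 48 hours. At the GI50, growth is halved. TGI is the concentration that stops growth completely.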

As to `C[N+](C)(CCCCCC[N+](C)(C)CCCN1C(=O)c2cc3ccccc3cc2C1=O)CCCN1C(=O)c2cc3ccccc3cc2C1=O`, the GI50 in the experiment on HCT-15 colon, in the experiment on HCC-2998 colon, in the experiment on OVCAR-4 ovarian, in the experiment with CCRF-CEM leukemia, in the experiment with CAKI-1 renal and in the experiment on SF-268 CNS was greater than 37.5 µM each time. In addition, the GI50 in the experiment with RPMI-8226 leukemia, in the experiment with NCI-H226 lung and in the experiment on SK-MEL-28 melanoma was greater than 37.5 µM each time. In addition, the TGI with HCT-15 colon, in the experiment with HCC-2998 colon, with OVCAR-4 ovarian, in the experiment on CCRF-CEM leukemia, with CAKI-1 renal and with SF-268 CNS was greater than 37.5 µM each time. In addition, the TGI in the experiment with RPMI-8226 leukemia, with NCI-H226 lung and in the experiment on SK-MEL-28 melanoma was greater than 37.5 µM throughout.
For `Cc1ccc2c(c1)C1C(CO2)C(c2ccccc2)=NN1c1ccccc1` (centres undefined), the TGI with HCC-2998 colon, in the experiment with CCRF-CEM leukemia, in the experiment on SF-268 CNS, in the experiment on RPMI-8226 leukemia and in the experiment with SK-MEL-28 melanoma was greater than 100 µM in each case.
With `COc1ccc(-c2nc(Nc3ccc(-c4nc5ccccc5[nH]4)cc3)nc(N3CCOCC3)n2)cc1`, the GI50 in the experiment with HCT-15 colon is 1.67 µM; in the experiment with HCC-2998 colon it was 3.09 µM; in the experiment with OVCAR-4 ovarian, 3.13 µM; in the experiment on CCRF-CEM leukemia it was 3.11 µM; with CAKI-1 renal, 1.98 µM; in the experiment with SF-268 CNS it was 2.82 µM. Besides, the GI50 was 1.93 µM in the experiment on RPMI-8226 leukemia, 3.32 µM in the experiment with NCI-H226 lung and 1.8 µM in the experiment with SK-MEL-28 melanoma. Besides, the TGI is 4.78 µM in the experiment on HCT-15 colon; greater than 100 µM in the experiment with HCC-2998 colon; 13 µM in the experiment with OVCAR-4 ovarian; greater than 100 µM with CCRF-CEM leukemia; 5.02 µM in the experiment with CAKI-1 renal; 26.5 µM with SF-268 CNS. Moreover, the TGI with RPMI-8226 leukemia worked out at 6.54 µM; in the experiment with NCI-H226 lung, 8.6 µM; in the experiment on SK-MEL-28 melanoma, 4.28 µM.
With `COC(=O)c1ccc2c(c1)C(=O)c1c-2n(C)c(=O)c2cc(OC)c(OC)cc12`, the GI50 in the experiment with HCT-15 colon, in the experiment on HCC-2998 colon, in the experiment on OVCAR-4 ovarian, in the experiment with CCRF-CEM leukemia, in the experiment on CAKI-1 renal and with SF-268 CNS was greater than 50 µM throughout. Besides, the GI50 in the experiment with RPMI-8226 leukemia, with NCI-H226 lung and with SK-MEL-28 melanoma was greater than 50 µM each time. In addition, the TGI with HCT-15 colon, with HCC-2998 colon, with OVCAR-4 ovarian, in the experiment with CCRF-CEM leukemia, with CAKI-1 renal and in the experiment with SF-268 CNS was greater than 50 µM each time. The TGI with RPMI-8226 leukemia, with NCI-H226 lung and with SK-MEL-28 melanoma was greater than 50 µM throughout.
Regarding `COC(=O)NN1C(C)=C(C(=O)OC)C2(C#N)C(C(=O)OC)=C(C)N(NC(=O)OC)C12N` (centres undefined), the TGI with HCT-15 colon, in the experiment with HCC-2998 colon, in the experiment with OVCAR-4 ovarian, in the experiment with CCRF-CEM leukemia, in the experiment with CAKI-1 renal and in the experiment on SF-268 CNS was greater than 100 µM in each case. Further, the TGI with RPMI-8226 leukemia, with NCI-H226 lung and in the experiment on SK-MEL-28 melanoma was greater than 100 µM each time.
On to `CN(C)CCC=C1c2ccccc2C(C)(C)c2ccccc21`, for which the GI50 in the experiment with HCT-15 colon is 12.3 µM; with HCC-2998 colon, 4.25 µM; with OVCAR-4 ovarian, 12.5 µM; in the experiment with CCRF-CEM leukemia it was 9.84 µM; in the experiment with CAKI-1 renal, 8.56 µM; in the experiment on SF-268 CNS, 14.7 µM. Further, the values for the GI50 in the experiment with RPMI-8226 leukemia and in the experiment on SK-MEL-28 melanoma were 2 µM and 2.05 µM, respectively. The TGI in the experiment on HCT-15 colon turned out to be 27.5 µM; with HCC-2998 colon, 15 µM; in the experiment on OVCAR-4 ovarian, 26.6 µM; in the experiment on CCRF-CEM leukemia it was 28.4 µM; with CAKI-1 renal it was 23.6 µM; in the experiment on SF-268 CNS, 27.8 µM. Moreover, the values for the TGI in the experiment with RPMI-8226 leukemia and in the experiment with SK-MEL-28 melanoma were 5.93 µM and 4.31 µM, respectively.
Turning to `CC1=NN2C(c3ccc(C)cc3)=CSC2=NC(C)(C)C1`, the TGI in the experiment with HCT-15 colon, in the experiment with HCC-2998 colon, in the experiment on OVCAR-4 ovarian, in the experiment with CCRF-CEM leukemia, in the experiment on SF-268 CNS and with RPMI-8226 leukemia was greater than 100 µM each time. Moreover, the TGI with NCI-H226 lung and with SK-MEL-28 melanoma was greater than 100 µM each time.
On to `CCCCCc1cc[n+](CC(=O)c2ccc([N+](=O)[O-])cc2)cc1`, for which the GI50 in the experiment with HCT-15 colon was 13.6 µM; in the experiment with HCC-2998 colon, 4.94 µM; with OVCAR-4 ovarian, 2.53 µM; in the experiment with CAKI-1 renal it was 11.2 µM; with SF-268 CNS, 19.4 µM; in the experiment with RPMI-8226 leukemia it was 3.18 µM. The GI50 was 6.73 µM in the experiment with NCI-H226 lung and 28.9 µM with SK-MEL-28 melanoma. Further, the TGI is 49.9 µM with HCT-15 colon; 17.6 µM with HCC-2998 colon; 13.1 µM in the experiment with OVCAR-4 ovarian; 34.8 µM with CAKI-1 renal; greater than 100 µM in the experiment with SF-268 CNS; 17 µM in the experiment on RPMI-8226 leukemia. Also, the TGI in the experiment on NCI-H226 lung is 24.4 µM; in the experiment with SK-MEL-28 melanoma, greater than 100 µM.
As for `Cn1c2ccccc2c(=O)c2c(O)cc3c(c21)CC(C1(C)CO1)O3` (centres undefined), the TGI with HCT-15 colon worked out at 30.6 µM; in the experiment on HCC-2998 colon, 5.4 µM; in the experiment with OVCAR-4 ovarian, 31.2 µM; in the experiment with CAKI-1 renal it was 17.9 µM; with SF-268 CNS, 4.11 µM; with RPMI-8226 leukemia, 22.6 µM. Further, the figures for the TGI in the experiment on NCI-H226 lung and in the experiment on SK-MEL-28 melanoma were 32 µM and 7.59 µM, respectively.
Turning to `NC1=NN(c2ccccc2)C(=O)C1/C(=N\NC(=O)c1cc2ccccc2cc1O)C(=O)Nc1cccc(C(F)(F)F)c1` (centres undefined), the TGI with HCC-2998 colon is greater than 100 µM; in the experiment with OVCAR-4 ovarian it was greater than 100 µM; in the experiment with CCRF-CEM leukemia it was 34.1 µM; in the experiment with SF-268 CNS, greater than 100 µM; in the experiment with RPMI-8226 leukemia it was greater than 100 µM; with SK-MEL-28 melanoma it was greater than 100 µM.
As to `COC(=O)C[CH2][Ge]([CH3])([CH3])[S]c1ccccc1`, the GI50 in the experiment on HCT-15 colon was 15.4 µM; in the experiment with OVCAR-4 ovarian it was 25.3 µM; in the experiment with CCRF-CEM leukemia it was 5.27 µM; in the experiment on CAKI-1 renal, 40.2 µM; in the experiment on SF-268 CNS, 18.2 µM; in the experiment with RPMI-8226 leukemia, 22.4 µM. Moreover, the GI50 is 27.4 µM in the experiment with NCI-H226 lung and 36 µM in the experiment on SK-MEL-28 melanoma. Besides, the TGI in the experiment on HCT-15 colon is 28.8 µM; in the experiment on HCC-2998 colon, greater than 100 µM; in the experiment on OVCAR-4 ovarian, greater than 100 µM; in the experiment on CCRF-CEM leukemia it was 24.3 µM; in the experiment on CAKI-1 renal, 79.1 µM; with SF-268 CNS it was 43.7 µM. For the same molecule, the results for the TGI with RPMI-8226 leukemia, with NCI-H226 lung and in the experiment on SK-MEL-28 melanoma were 58.1 µM, greater than 100 µM and greater than 100 µM, respectively.
As for `Cc1cc(=O)n2c3c(c4c(cc13)c(CO)cc(=O)n4C)OC2`, the TGI in the experiment on HCC-2998 colon was 44.8 µM; with OVCAR-4 ovarian, greater than 100 µM; with CCRF-CEM leukemia it was 56.8 µM; in the experiment with CAKI-1 renal, greater than 100 µM; in the experiment with SF-268 CNS, 52.6 µM; in the experiment on RPMI-8226 leukemia it was greater than 100 µM. Besides, the TGI in the experiment on NCI-H226 lung was determined as 25.8 µM; in the experiment on SK-MEL-28 melanoma it was 78.7 µM.
As for `CC1(c2cccc(N)c2)C2C(=O)NC(=O)C1C(=O)NC2=O` (centres undefined), the TGI with HCT-15 colon was greater than 100 µM; in the experiment on HCC-2998 colon, greater than 100 µM; in the experiment with OVCAR-4 ovarian, greater than 100 µM; in the experiment on CCRF-CEM leukemia, 62.5 µM; in the experiment on CAKI-1 renal, greater than 100 µM; in the experiment on SF-268 CNS, greater than 100 µM. Besides, the TGI is 40.3 µM in the experiment with RPMI-8226 leukemia, 83.8 µM in the experiment with NCI-H226 lung and greater than 100 µM in the experiment with SK-MEL-28 melanoma.
In the case of `CSc1nc2c(nc(N)n2C2OC(COC(C)=O)C(OC(C)=O)C(OC(C)=O)C2OC(C)=O)c(=O)n1C` (centres undefined), the TGI in the experiment on HCT-15 colon, in the experiment with HCC-2998 colon, with OVCAR-4 ovarian, in the experiment with CCRF-CEM leukemia, in the experiment on CAKI-1 renal and with RPMI-8226 leukemia was greater than 100 µM each time. The molecule further gave a TGI in the experiment with NCI-H226 lung greater than 100 µM.
Consider `CC(=O)[CH-]C(=O)c1ccccc1.CC(=O)[CH-]C(=O)c1ccccc1.CC[C@H](/C=C/C(C)[C@H]1CCC2[C@@H]3CC=C4C[C@@H]([O-])CC[C@]4(C)C3CC[C@@]21C)C(C)C.CC[O-].[Ti+4]` (some centres undefined), for which the GI50 is greater than 100 µM in the experiment with HCT-15 colon; greater than 100 µM in the experiment with HCC-2998 colon; greater than 100 µM in the experiment on OVCAR-4 ovarian; 61.4 µM in the experiment with CCRF-CEM leukemia; greater than 100 µM in the experiment on CAKI-1 renal; greater than 100 µM in the experiment with SF-268 CNS. In addition, the GI50 in the experiment on RPMI-8226 leukemia, with NCI-H226 lung and in the experiment with SK-MEL-28 melanoma was greater than 100 µM each time. Moreover, the TGI in the experiment on HCT-15 colon, in the experiment on HCC-2998 colon, in the experiment with OVCAR-4 ovarian, in the experiment on CCRF-CEM leukemia, in the experiment with CAKI-1 renal and in the experiment on SF-268 CNS was greater than 100 µM in each case. For the same molecule, the total growth inhibition concentration (TGI) in the experiment on RPMI-8226 leukemia, in the experiment on NCI-H226 lung and in the experiment with SK-MEL-28 melanoma was greater than 100 µM in each case.
On to `CCOC(=O)c1ccc2c(c1)nc(/C=C/c1ccc(Cl)cc1)n2-c1cc(C(C)(C)C)[nH]n1`, for which the GI50 in the experiment with HCT-15 colon was 4.26 µM; in the experiment on HCC-2998 colon, greater than 100 µM; in the experiment with OVCAR-4 ovarian, 1.9 µM; in the experiment with CCRF-CEM leukemia, 7.54 µM; in the experiment on CAKI-1 renal it was 5.04 µM; with SF-268 CNS it was 5.86 µM. The GI50 in the experiment on RPMI-8226 leukemia is 8.14 µM; in the experiment on NCI-H226 lung, 3.63 µM; in the experiment with SK-MEL-28 melanoma, 3.51 µM. Also, the concentration for total growth inhibition (TGI) with HCT-15 colon is greater than 100 µM; in the experiment with HCC-2998 colon, greater than 100 µM; with OVCAR-4 ovarian, 7.31 µM; in the experiment with CCRF-CEM leukemia, greater than 100 µM; in the experiment with CAKI-1 renal, 61.2 µM; in the experiment on SF-268 CNS, greater than 100 µM. Moreover, the TGI in the experiment with RPMI-8226 leukemia is greater than 100 µM; with NCI-H226 lung, 27.2 µM; in the experiment with SK-MEL-28 melanoma it was 40.3 µM.

For the origin of these results see PubChem BioAssay (NCI).
